Results taken from patent publication US20090246293A1 (priority 2008, published 2009).
Like-named read-outs stand apart in the source and are kept apart here.

Legend:
[1] = test system: Plasmopara viticola (PLASVI); type: in vivo; conditions: for effect of Formulation I on the effectiveness of fungicides, PLASVI: Table 20; for Reduction in percent disease, Formul. II / Reduction in percent disease, Formul. I: PLASVI
[2] = test system: Pseudoperonospora cubensis (PSPECU); conditions: in vivo
[3] = test system: Phytophthora infestans (PHYTIN); type: in vivo; conditions: for effect of Formulation I on the effectiveness of fungicides, PHYTIN: Table 20
[4] = aldehyde derivative 500 ppm with mancozeb, Table 16
[5] = fungicide with Formulation I at 100 ppm
[6] = fungicide with Formulation II at 100 ppm of attractant derivative, Table 22
[7] = fungicide with Formulation I at 100 ppm, Table 21
[8] = fungicide with Formulation II at 100 ppm, Table 21
[9] = fungicide with Formulation I at 100 ppm, Table 19

CCC(C)/C=N/NC(=O)c1cccc(C(=O)N/N=C/C(C)CC)c1 (centres unmarked) [Compound P]
Reduction in percent disease PLASVI [1, 4]: x (0-20% reduction in percent disease) | Reduction in percent disease PSPECU [2]: x (key: x: 0-20% reduction in percent disease; xx: 21-35% reduction in percent disease; xxx: 36-50% reduction in percent disease; xxxx: >50% reduction in percent disease) | Reduction in percent disease PHYTIN [3, 4]: x (0-20% reduction in percent disease)

COCC(=O)N(c1c(C)cccc1C)C(C)C(=O)OC (centres unmarked) [Metalaxyl]
effect of Formulation I on the effectiveness of fungicides, PLASVI [1, 5]: x (0-20% reduction in percent disease) | effect of Formulation I on the effectiveness of fungicides, PSPECU [2]: x (key: x: 0-20% reduction in percent disease; xx: 21-35% reduction in percent disease; xxx: 36-50% reduction in percent disease; xxxx: >50% reduction in percent disease) | effect of Formulation I on the effectiveness of fungicides, PHYTIN [3, 5]: xx (21-35% reduction in percent disease)

COCC(=O)N(c1c(C)cccc1C)[C@H](C)C(=O)OC [Mefenoxam]
Reduction in percent disease, Formul. II [1, 6]: xx (21-35% reduction in percent disease) | effect of Formulation I on the effectiveness of fungicides, PLASVI [1, 5]: x (0-20% reduction in percent disease) | Reduction in percent disease, Formul. II [2]: x (key: x: 0-20% reduction in percent disease; xx: 21-35% reduction in percent disease; xxx: 36-50% reduction in percent disease; xxxx: >50% reduction in percent disease) | Reduction in percent disease, Formul. II ([3]; PHYTIN, fungicide with Formulation II at 100 ppm of attractant derivative, Table 22): xx (21-35% reduction in percent disease) | Reduction in percent disease PHYTIN ([3]; fungicide with Formulation I at 100 ppm, Table 18): xxxx (>50% reduction in percent disease) | effect of Formulation I on the effectiveness of fungicides, PHYTIN [3, 5]: xx (21-35% reduction in percent disease)

CCCCCCCCCc1c(COC)nc2ncnn2c1N [Compound T]
Reduction in percent disease, Formul. I [1, 7]: x (0-20% reduction in percent disease) | Reduction in percent disease, Formul. II [1, 8]: x (0-20% reduction in percent disease) | Reduction in percent disease, Formul. I [2]: x (key: x: 0-20% reduction in percent disease; xx: 21-35% reduction in percent disease; xxx: 36-50% reduction in percent disease; xxxx: >50% reduction in percent disease) | Reduction in percent disease, Formul. II [2]: x (key: x: 0-20% reduction in percent disease; xx: 21-35% reduction in percent disease; xxx: 36-50% reduction in percent disease; xxxx: >50% reduction in percent disease) | Reduction in percent disease, Formul. I ([3]; PHYTIN, fungicide with Formulation I at 100 ppm, Table 21): x (0-20% reduction in percent disease) | Reduction in percent disease, Formul. II ([3]; PHYTIN, fungicide with Formulation II at 100 ppm, Table 21): x (0-20% reduction in percent disease)

C#CCOc1ccc(CCNC(=O)C(OCC#C)c2ccc(Cl)cc2)cc1OC (centres unmarked) [Mandipropamid]
Reduction in percent disease PLASVI [1, 9]: xx (21-35% reduction in percent disease) | Reduction in percent disease PSPECU [2]: x (key: x: 0-20% reduction in percent disease; xx: 21-35% reduction in percent disease; xxx: 36-50% reduction in percent disease; xxxx: >50% reduction in percent disease) | Reduction in percent disease PHYTIN [3, 9]: x (0-20% reduction in percent disease)

CC(C)[C@H](NC(=O)O)C(=O)N[C@H](C)c1nc2ccc(F)cc2s1 [Benthiavalicarb]
Reduction in percent disease PLASVI [1, 9]: x (0-20% reduction in percent disease) | Reduction in percent disease PSPECU [2]: xx (key: x: 0-20% reduction in percent disease; xx: 21-35% reduction in percent disease; xxx: 36-50% reduction in percent disease; xxxx: >50% reduction in percent disease) | Reduction in percent disease PHYTIN [3, 9]: x (0-20% reduction in percent disease)

condensation product of urea and 2- methylbutyraldehyde [Compound Q]
Reduction in percent disease PLASVI [1, 4]: x (0-20% reduction in percent disease) | Reduction in percent disease PSPECU [2]: x (key: x: 0-20% reduction in percent disease; xx: 21-35% reduction in percent disease; xxx: 36-50% reduction in percent disease; xxxx: >50% reduction in percent disease) | Reduction in percent disease PHYTIN [3, 4]: x (0-20% reduction in percent disease)

CNC(=O)/C(=N/OC)c1ccccc1COc1cc(C)ccc1C [Dimoxystrobin]
Reduction in percent disease PLASVI [1, 9]: x (0-20% reduction in percent disease) | Reduction in percent disease PSPECU [2]: x (key: x: 0-20% reduction in percent disease; xx: 21-35% reduction in percent disease; xxx: 36-50% reduction in percent disease; xxxx: >50% reduction in percent disease) | Reduction in percent disease PHYTIN [3, 9]: x (0-20% reduction in percent disease)

CCNc1nc(CC)c(C(=O)NC(C#N)c2cccs2)s1 (centres unmarked) [Ethaboxam, reference compound]
Reduction in percent disease, Formul. I [1, 7]: x (0-20% reduction in percent disease) | Reduction in percent disease, Formul. II [1, 8]: x (0-20% reduction in percent disease) | Reduction in percent disease PLASVI [1, 9]: x (0-20% reduction in percent disease) | Reduction in percent disease, Formul. II [2]: x (key: x: 0-20% reduction in percent disease; xx: 21-35% reduction in percent disease; xxx: 36-50% reduction in percent disease; xxxx: >50% reduction in percent disease) | Reduction in percent disease PHYTIN [3, 9]: x (0-20% reduction in percent disease)

Cc1ccc(C(C)NC(=O)[C@@H](NC(=O)OC(C)C)C(C)C)cc1 (some centres unmarked) [Iprovalicarb]
Reduction in percent disease PLASVI [1, 9]: xx (21-35% reduction in percent disease) | Reduction in percent disease PSPECU [2]: x (key: x: 0-20% reduction in percent disease; xx: 21-35% reduction in percent disease; xxx: 36-50% reduction in percent disease; xxxx: >50% reduction in percent disease) | Reduction in percent disease PHYTIN [3, 9]: x (0-20% reduction in percent disease)

O=C(NCc1ncc(C(F)(F)F)cc1Cl)c1c(Cl)cccc1Cl [Fluopicolide]
Reduction in percent disease, Formul. II [1, 6]: x (0-20% reduction in percent disease) | effect of Formulation I on the effectiveness of fungicides, PSPECU [2]: x (key: x: 0-20% reduction in percent disease; xx: 21-35% reduction in percent disease; xxx: 36-50% reduction in percent disease; xxxx: >50% reduction in percent disease) | effect of Formulation I on the effectiveness of fungicides, PHYTIN [3, 5]: xx (21-35% reduction in percent disease)

condensation product of urea and 3,3- dimethylbutyraldehyde [Compound R]
Reduction in percent disease PLASVI [1, 4]: x (0-20% reduction in percent disease) | Reduction in percent disease PSPECU [2]: x (key: x: 0-20% reduction in percent disease; xx: 21-35% reduction in percent disease; xxx: 36-50% reduction in percent disease; xxxx: >50% reduction in percent disease) | Reduction in percent disease PHYTIN [3, 4]: xx (21-35% reduction in percent disease)
